Experimental data taken from patent US8026073B2, “Screening G protein-coupled receptor antagonists for methods of treating Alzheimer's disease” (Shanghai Institutes for Biological Sciences, Chinese …, priority 2005, dated 2011).
Entries after “also recorded” stand apart in the source; their conditions may differ.

Tests used:
[1] = stated as a property, no test described; cited from earlier work
APPswe/PS1ΔE9 mice [2] = test: Morris water maze, APPswe/PS1ΔE9 mice, Animal Model Experiment 1; details: for percent time spent in the platform quadrant, probe trial: 24 h after the final hidden platform training; for percent time spent in the platform quadrant, probe trial / escape latency, hidden platform training: versus control transgenic mice; for escape latency, visible platform training / escape latency, hidden platform training: oral administration from 4 months of age; for escape latency, visible platform training: transgenic mice; for swim speed as cause of the observed effects: FIG. 15d, 16d, 17d
γ-secretase [3] = test: γ-Secretase fluorogenic substrate assay, SH-SY5Y neuroblastoma; type: cell-based
Procedure: The enhancement of γ-secretase activity upon activation of receptors is not limited to β-AR. Similar results were also observed when endogenous DOR in SH-SY5Y neuroblastoma (FIG. 7a) or in primary hippocampal cultures (FIG. 7b) were stimulated.
Again, the involvement of LEL in the enhancement of the γ-secretase activity is not limited to β-AR. […] The experiment shown in FIG. 12 was performed with SH-SY5Y neuroblastoma. […] The fractions were subjected to […] (Aβ) assay and fluorogenic substrate assay.

γ-secretase [4] = test: γ-Secretase fluorogenic substrate assay, acute hippocampal slices; type: cell-based, rat; details: 1 μM DADLE, 30 minutes
[5] = test system: APPswe/PS1ΔE9 double-transgenic mice; test: Morris water maze, APPswe/PS1ΔE9 mice, Animal Model Experiment 2; type: in vivo, mouse; details: for escape latency, visible platform / escape latency, hidden platform: oral daily for 30 days, 2 mg/kg clenbuterol or 1 mg/kg ICI 118,551; for escape latency, hidden platform: versus Sal mice
Procedure: In further animal experiments, four-month old APPswe/PS1ΔE9 double-transgenic mice were orally administered with saline (Sal), 2 mg/kg clenbuterol (Cle, a β2AR-selective agonist) or 1 mg/kg ICI 118,551 (ICI, a β2AR-selective antagonist) daily for 30 days.
The water maze was a circular 1.2 m pool filled with water at 24-25° C. and made opaque by the addition of milk powder. The pool was placed amid fixed spatial cues consisting of boldly patterned curtains and shelves containing distinct objects. […] Mice first underwent visible platform training for 2 consecutive days (eight trials per day), swimming to a raised circular platform (10 cm of diameter) marked with a pole. Visible platform days were split into two training blocks of four trials for statistical analysis. During visible platform training, both the platform location (NE, SE, SW, or NW) and start position (N, […], S, or W) were varied pseudo-randomly in each trial.
Hidden platform raining was conducted over 6 consecutive days (four trials per day), wherein mice were allowed to search for a platform submerged 1.5 cm beneath the surface of the water. Mice failing to reach the platform within 60 sec were led to the platform. During hidden-platform trials, the location of the platform remained constant, and mice entered the pool in one of the four pseudo-randomly selected locations (N, E, S, or W). After each hidden platform trial, mice remained on the platform for 30 sec and were removed from the platform and returned to their home cage.
Twenty-four hours after the final hidden platform training, a probe trial was conducted in which the platform was removed from the pool and mice were allowed to search for the platform for 60 sec. All trials were monitored by a camera mounted directly above the pool and were recorded and analyzed using a computerized tracking system.

APPswe/PS1ΔE9 mice [6] = test: Cerebral amyloid plaque formation in APPswe/PS1ΔE9 mice after chronic administration; details: daily for 30 days, 3 nM Iso i.c.v., 2 mg/kg Cle oral, 1 mg/kg ICI 118,551 oral
endogenous β-ARs = test: Secreted Aβ ELISA in primary hippocampal cultures expressing C99, β-AR stimulation; type: cell-based, rat; details: 10 μM Iso, 1 h
γ-secretase [7] = test: Immunofluorescence microscopy of acute hippocampal slices, localization of γ-secretase in LEL; details: Iso treatment
γ-secretase [8] = details: wild-type versus presenilin-deficient MEFs; 10 μM Iso, 30 min
γ-secretase [9] = test: γ-Secretase fluorogenic substrate assay, C6 glioma membrane fractions; type: cell-based
β2AR = molecular target: T1, β2AR (Homo sapiens, UniProt P07550); test: Secreted Aβ ELISA in HEK293 cells co-expressing β2AR and APPswe; type: cell-based; details: 10 μM Iso 1 h with 10 μM Pro, or after 6-h pre-treatment with 1 μM L685,458
T1 construct: expressed in transfected cells; host or cells: HEK293

γ-secretase [10] = test: γ-Secretase activity in rat hippocampus after acute injection (fluorogenic substrate assay); details: rats, 2 μg norepinephrine i.c.v. or 0.5 mg/kg clenbuterol i.p.
Aβ40 and Aβ42 = test: Aβ levels in rat hippocampus after acute injection (rat Aβ ELISA); details: rats, 2 μg norepinephrine i.c.v. or 0.5 mg/kg clenbuterol i.p.
δ-opioid receptor (DOR) = δ-opioid receptor (DOR) (Homo sapiens, UniProt P41143); details: C99-transfected HEK293 cells; DADLE plus NALT
γ-secretase [11] = test: γ-Secretase fluorogenic substrate assay, HEK293 cells treated with transferrin; type: cell-based; details: transferrin-induced endocytosis
Procedure: However, it is till not clear whether clathrin-mediated endocytosis by itself is […] to induce the enhancement of γ-secretase activity. To answer this question, HEK293 cells were treated with transferrin, which can induce constitutive clathrin-dependent endocytosis of transferrin receptor.

Sequence of δ-opioid receptor (DOR) (P41143 whole entry): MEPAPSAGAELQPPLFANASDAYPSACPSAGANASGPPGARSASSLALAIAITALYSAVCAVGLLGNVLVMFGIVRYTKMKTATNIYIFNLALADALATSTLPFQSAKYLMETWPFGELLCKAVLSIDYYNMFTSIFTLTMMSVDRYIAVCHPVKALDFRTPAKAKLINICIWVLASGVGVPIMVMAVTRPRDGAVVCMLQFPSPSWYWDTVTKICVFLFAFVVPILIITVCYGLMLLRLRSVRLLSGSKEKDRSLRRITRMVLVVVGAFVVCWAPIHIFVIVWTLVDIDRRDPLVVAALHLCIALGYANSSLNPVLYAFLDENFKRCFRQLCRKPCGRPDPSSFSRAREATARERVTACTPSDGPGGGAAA
T1 sequence (P07550 whole entry): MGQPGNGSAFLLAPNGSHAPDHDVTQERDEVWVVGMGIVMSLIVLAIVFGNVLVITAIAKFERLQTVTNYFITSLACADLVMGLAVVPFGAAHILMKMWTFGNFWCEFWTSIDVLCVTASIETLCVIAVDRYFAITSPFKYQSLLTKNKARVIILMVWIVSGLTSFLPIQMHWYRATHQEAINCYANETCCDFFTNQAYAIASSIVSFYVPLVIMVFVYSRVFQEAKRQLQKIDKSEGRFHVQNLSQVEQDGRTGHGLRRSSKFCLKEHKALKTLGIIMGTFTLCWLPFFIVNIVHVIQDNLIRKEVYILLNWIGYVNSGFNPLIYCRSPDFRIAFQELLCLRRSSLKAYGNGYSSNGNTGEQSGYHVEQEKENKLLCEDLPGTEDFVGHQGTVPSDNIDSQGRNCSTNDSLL

CC(C)NCC(O)COc1ccc(CCOCC2CC2)cc1 (centres unmarked) [Betaxolol]
crossing of the blood-brain barrier (BBB) [1]: can cross the BBB
percent time spent in the platform quadrant, probe trial (APPswe/PS1ΔE9 mice [2]): showed less significant effect; also recorded: showed no effect
escape latency, visible platform training (APPswe/PS1ΔE9 mice [2]): no drug effect was observed
escape latency, hidden platform training (APPswe/PS1ΔE9 mice [2]): showed some effect; also recorded: showed some extent of amelioration, but the effect was not statistically significant

COc1ccc(OC)c(C(O)C(C)NC(C)(C)C)c1 (centres unmarked) [Butoxamine]
crossing of the blood-brain barrier (BBB) [1]: can cross the BBB
swim speed as cause of the observed effects (APPswe/PS1ΔE9 mice [2]): not due to difference in swim speeds
escape latency, visible platform training (APPswe/PS1ΔE9 mice [2]): no drug effect was observed
escape latency, hidden platform training (APPswe/PS1ΔE9 mice [2]): significantly ameliorated cognitive impairment

CC(C)C[C@@H](NC(=O)[C@H](Cc1ccccc1)NC(=O)CNC(=O)[C@@H](C)NC(=O)[C@@H](N)Cc1ccc(O)cc1)C(=O)O [DADLE, [D-Ala^2, D-Leu^5]-enkephalin]
γ-secretase activity (γ-secretase [3]; SH-SY5Y neuroblastoma, 1 μM DADLE, 30 minutes): enhanced γ-secretase activity
γ-secretase activity in the AP positive fraction (γ-secretase [3]; SH-SY5Y, 1 μM DADLE 30 minutes, then fractionated): enhanced the γ-secretase activity in the AP positive fraction
γ-secretase activity (γ-secretase [4]): enhanced γ-secretase activity

Cc1ccc(OCC(O)C(C)NC(C)C)c2c1CCC2 (centres unmarked) [ICI 118,551]
crossing of the blood-brain barrier (BBB) [1]: can cross the BBB
percentage time spent on the platform, probe trial ([5]; 24-h after final hidden platform training, 1 mg/kg ICI 118,551 oral daily for 30 days, listed as ICI): spent greater proportion of time in the platform; also recorded: spent greater proportion of time in the target quadrant
escape latency, visible platform [5]: small, but statistically insignificant, effects of drug treatments; also recorded: No significant effect
escape latency, hidden platform [5]: displayed a faster learning curve than the Sal mice; also recorded: displayed a faster learning curve than the Sal ones
swim speed as cause of the observed effects (APPswe/PS1ΔE9 mice [2]): did not result from changes in swim speeds
escape latency, visible platform training (APPswe/PS1ΔE9 mice [2]): no drug effect was observed
escape latency, hidden platform training (APPswe/PS1ΔE9 mice [2]): significantly ameliorated cognitive impairment
cerebral amyloid plaques (APPswe/PS1ΔE9 mice [6]): significantly reduced the amounts of amyloid plaques; also recorded: effective in suppressing the formation of β-amyloid plaques

CC(C)NCC(O)c1ccc(O)c(O)c1 (centres unmarked) [Iso, isoproterenol]
secreted Aβ (endogenous β-ARs): increases Aβ production
co-localization of PS1 or nicastrin with LAMP-1 (γ-secretase [7]): increased
Iso-induced enhancement of γ-secretase activity (γ-secretase [8]): Presenilin-deficiency abolished the Iso-induced enhancement
γ-secretase activity, compound alone (γ-secretase [9]): γ-secretase activity was enhanced
cerebral amyloid plaques (APPswe/PS1ΔE9 mice [6]): increased cerebral amyloid plaques; also recorded: accelerated amyloid plaque formation

CC(C)C[C@H](NC(=O)[C@H](Cc1ccccc1)C[C@@H](O)[C@H](Cc1ccccc1)NC(=O)OC(C)(C)C)C(=O)N[C@@H](Cc1ccccc1)C(N)=O [L685,458]
effect on Iso-induced increase in secreted Aβ (β2AR): abolished the increased production of the secreted Aβ

COCCc1ccc(OCC(O)CNC(C)C)cc1 (centres unmarked) [Metoprolol]
percent time spent in the platform quadrant, probe trial (APPswe/PS1ΔE9 mice [2]): showed no effect
percent time spent in the platform quadrant, probe trial (APPswe/PS1ΔE9 mice [2]; listed as metoprolol): had no effect
escape latency, visible platform training (APPswe/PS1ΔE9 mice [2]): no drug effect was observed
escape latency, hidden platform training (APPswe/PS1ΔE9 mice [2]): showed no effect

CC(C)(C)NCC(O)c1cc(Cl)c(N)c(Cl)c1 (centres unmarked) [clenbuterol]
γ-secretase activity in hippocampus (γ-secretase [10]): significantly enhanced; also recorded: enhanced γ-secretase activity
Aβ levels (Aβ40 and Aβ42) in hippocampus (Aβ40 and Aβ42): significantly enhanced; also recorded: increased secreted Aβ 40 and Aβ 42 levels
escape latency, visible platform [5]: small, but statistically insignificant, effects of drug treatments; also recorded: No significant effect
escape latency, hidden platform [5]: seemed to have no effect
cerebral amyloid plaques (APPswe/PS1ΔE9 mice [6]): accelerated amyloid plaque formation
cerebral amyloid plaques (APPswe/PS1ΔE9 mice [6]; listed as Cle): increased cerebral amyloid plaques

CC(C)(C)NCC(O)COc1cccc2c1CC(O)C(O)C2 (centres unmarked) [nadolol]
percent time spent in the platform quadrant, probe trial (APPswe/PS1ΔE9 mice [2]): had no effect
escape latency, visible platform training (APPswe/PS1ΔE9 mice [2]): No genotype or drug effect
escape latency, hidden platform training (APPswe/PS1ΔE9 mice [2]): showed no effect
escape latency, hidden platform training (APPswe/PS1ΔE9 mice [2]; listed as Nadolol): showed no effect on the impairment

Oc1ccc2c3c1O[C@H]1c4[nH]c5ccccc5c4C[C@@]4(O)[C@@H](C2)N(CC2CC2)CC[C@]314 [naltrindole]
effect on DADLE-induced Aβ production (δ-opioid receptor (DOR)): abolished the effect of DADLE
crossing of the blood-brain barrier (BBB) [1]: can cross the BBB
escape latency, visible platform training (APPswe/PS1ΔE9 mice [2]): no drug effect was observed
escape latency, hidden platform training (APPswe/PS1ΔE9 mice [2]): ameliorated cognitive impairment

NC[C@H](O)c1ccc(O)c(O)c1 [norepinephrine]
γ-secretase activity in hippocampus (γ-secretase [10]): significantly enhanced; also recorded: enhanced γ-secretase activity
Aβ levels (Aβ40 and Aβ42) in hippocampus (Aβ40 and Aβ42): significantly enhanced; also recorded: increased secreted Aβ 40 and Aβ 42 levels

CC(C)NCC(O)COc1cccc2ccccc12 (centres unmarked) [propranolol]
percent time spent in the platform quadrant, probe trial (APPswe/PS1ΔE9 mice [2]): partially ameliorated the impairment of spatial memory
swim speed as cause of the observed effects (APPswe/PS1ΔE9 mice [2]): did not result from difference in swim speeds
escape latency, visible platform training (APPswe/PS1ΔE9 mice [2]): No genotype or drug effect
escape latency, hidden platform training (APPswe/PS1ΔE9 mice [2]): partially ameliorate the impairment

cholera toxin
γ-secretase activity, compound alone (γ-secretase [9]): did not result in enhanced γ-secretase activity

concanavalin A [Con A]
effect on Iso-induced enhancement of γ-secretase activity (γ-secretase [9]; C6 glioma, 10 μM Iso 30 min after pretreatment with 0.25 mg/ml Con A or 0.5 M Suc): abolished

pertussis toxin [PTX]
effect on DADLE-induced enhancement of γ-secretase activity (γ-secretase [3]; SH-SY5Y, 1 μM DADLE after 12 hours pre-treatment with 200 ng/ml PTX): not abolished; also recorded: did not alter the enhancement of γ-secretase activity

transferrin
γ-secretase activity (γ-secretase [11]): does not lead to enhanced γ-secretase activity; also recorded: failed to enhance γ-secretase activity
